Here are results for seven compounds from US20060097218A1, “Etchants containing filterable surfactant” (General Chemical Performance Products LLC, priority 2004, published 2006).

Common to all, as to assay type: physicochemical
Series [1] is described as follows: Surface tension measurement of surfactant-containing etchant. Conditions: BOE 7-1 (about 35% NH4F, about 6.3% HF); 25° C.; prior to filtration; incremental additions until ST stabilized or saturation. The protocol:
In the examples, a surfactant was added to a mixture of predetermined amounts of hydrofluoric acid, ammonium fluoride and deionized water to prepare an etchant composition. The prepared composition was kept standing at room temperature and test samples were periodically withdrawn to measure the change of surface tension of the composition.
(§1) A preliminary testing was conducted prior to filtration to evaluate whether individual components of the claimed surfactant(s), would work individually, need modification, or require combining to give a basic understanding which would lead to synthesis of the surfactant(s) of the invention. Potential surfactant candidates were prepared and evaluated in an aqueous mixture comprised of about 35% by weight of ammonium fluoride, NH4F, and about 6.3% by weight of hydrofluoric acid, HF, (defined as BOE 7-1).
In this run, surfactant “H” was tested with an aqueous solution of mixed etchants consisting of about 85% by weight of sulfuric acid, about 5% by weight of nitric acid, and about 1.5% by weight hydrofluoric acid. 100 ppm (Sample 1) and 200 ppm (Sample 2) by weight of surfactant “H” were mixed into two separate samples of FS Etch. The surface tension of both unfiltered samples was measured 1 hour upon batch completion and after 15 days of storage.
Additional measurements of surface tension at 25° C. were carried out on unfiltered aqueous etchants of (1) 40% by weight ammonium fluoride, and (2) 9.2% by weight of hydrofluoric acid containing 100 ppm by weight of surfactant “H” (Table I).

Series [2] in a line: Preliminary testing of potential surfactants: comments and overall assessment. The settings on record: BOE 7-1; prior to filtration. The protocol:
as §1

A short description of series [3]: Solubility of surfactant in BOE (saturation point). The settings on record: BOE 7-1; prior to filtration. The protocol:
Potential surfactant candidates were prepared and evaluated in an aqueous mixture comprised of about 35% by weight of ammonium fluoride, NH4F, and about 6.3% by weight of hydrofluoric acid, HF, (defined as BOE 7-1).

`NC1CCCCCC1` [Surfactant A, Cycloheptylamine] registered a Surface Tension in series [1] of 72 dynes/cm. In series [2], the Comments entry is “ST too high” and the “Promising (Yes/No)” value is reported as “No”. Besides, the “Solubility In BOE” value in series [3] is “≦400 ppm”.
For `NC1CCCCCCC1` [Surfactant B, Cyclooctylamine] the same measures were 65 dynes/cm, “ST too high”, “No” and “≦600 ppm”.
Taken in the same sequence, the figures for `NC1CCCC1` [Surfactant C, Cyclopentylamine] were 65 dynes/cm, “ST too high”, “No” and “≦400 ppm”.
Taken in the same sequence, the figures for `O=C(O)C(F)(F)C(F)(F)C(F)(F)C(F)(F)C(F)(F)C(F)(F)C(F)(F)F` [Surfactant D, Perfluorooctanoic Acid] were 20 dynes/cm, “Precipitated”, “No” and “≦100 ppm”.
In series [1], `O=C(O)C(F)(F)C(F)(F)C(F)(F)C(F)(F)C(F)(F)C(F)(F)F` [Surfactant E, Perfluoroheptanoic Acid] registered a Surface Tension of 20 dynes/cm. In series [2], the Comments entry was “Precipitated” and the “Promising (Yes/No)” value was “No”. Besides, the “Solubility In BOE” value in series [3] is listed as “≦100 ppm”.
Taken in the same sequence, the figures for `O=C(O)C(F)(F)C(F)(F)C(F)(F)C(F)(F)C(F)(F)C(F)(F)C(F)(F)C(F)(F)F` [Surfactant F, Perfluorononanoic Acid] were 25 dynes/cm, “Precipitated”, “No” and “≦100 ppm”.
For `O=C(O)C(F)(F)C(F)(F)C(F)(F)C(F)(F)F` [Surfactant G, Perfluoropentanoic Acid] the same measures were 24 dynes/cm, “Precipitated”, “No” and “≦100 ppm”.
